# Measured values as given in patent publication US12622953B2, “Vaccines targeting neoepitopes” (Evaxion Biotech A/S, priority 2019, dated 2026).
# Entries after “also recorded” stand apart in the source; their conditions may differ.
# Tested on: neo-peptide specific CD8+ T cells
# Test: MHC I multimer staining of whole blood after i.p. immunization
# Assay type: in vivo, BALB/c mice
# Details: endpoint day 28, 2.0 μg C22 i.p.
# Protocol: 6-8 weeks old BALB/c JrJ femal mice were acquired from Janvier Labs. The mice were acclimated for one week before initiation of the experiment. The mice had ad libitum access to water and standard chow pellets. The experiment was conducted under license 2017-15-0201-01338 from the Danish Animal Experimentation Inspectorate in accordance with the Danish Animal Experimentation Act, which is stricter and therefore fully compliant with the European directive (2010/63/EU). The mice were ear tagged to allow for identification of individuals.
# To avoid “cage effects” all treatment groups were represented in each cage. Mice in groups 1, 2, 3 and 4 (the cluster immunization groups) were intraperitoneally (i.p.) immunized at day 0, 1, 2, 3, 7, 14 and 21 with 0.4, 2.0, 10.0 and 50.0 μg of C22 admixed with CAF09b, respectively. Corresponding groups (5, 6, 7 and 8) were vaccinated according to a traditional prime-boost strategy on days 0, 14 and 21 with solutions identical to what group 1, 2, 3 and 4 received. Dosing volumes for the mice were 200 μl for all vaccines.
# The C22 peptide was synthesised by GenScript and aliquoted into 0.8 mg portions as a lyophilized product. The peptide was solubilized in DMSO to a concentration of 10 mg/ml by adding 80 μl DMSO to each aliquot. The peptide stock was then diluted 10 times in sterile water (80 μl peptide stock+720 μl sterile water). […]
sequence,measurement,setting,value
QIETQQRKFKASRASILSEMKMLKEKR (listed as Mus musculus) [Peptide C22],MHC:C22 positive CD8+ T cells in blood,cluster primed,low-frequency MHC:C22 positive CD8+ T cells were detected; also recorded: small increase
same,neo-peptide specific CD8+ cells in blood,standard prime-boost schedule,hardly any
